Measured values: PMC8453745, “Human Mass Balance and Metabolite Profiling of [^14C]‐Pamiparib, a Poly (ADP‐Ribose) Polymerase Inhibitor, in Patients With Advanced Cancer” (Clinical Pharmacology in Drug Development, 2021)
“Also recorded” adds a separate entry of the source.

How the values were obtained:
[1] = metabolite profiling in pooled feces (radioprofiling, LC‐MS); assay type: in vivo, human; conditions: pooled feces 0‐120 hours, mean
Description: (§1) Total radioactivity concentrations of [^14C]‐pamiparib in whole blood, plasma, urine, and feces were determined by liquid scintillation counting (LSC). Radioactivity in each sample was measured for 5 minutes using a Packard Tri‐Carb liquid scintillation counter model 2100TR, 2900TR, or 3100TR (Canberra Packard, Pangbourne, Berks, Australia) with the facilities for computing quench‐corrected disintegrations per minute. Metabolite identification in plasma, urine, and feces was conducted by LC‐MS. Quantitation of the metabolites present in plasma, urine, and feces was based on the profiles of radioactivity. The limit of quantitation for radioactivity in plasma, urine, and feces was set at 1% of each chromatographic analysis (run) and 10 counts per minute (cpm) peak height; therefore, radioactive peaks that were <1% of the total run or <10 cpm peak height were reported as not detected. In addition, pamiparib and standards were reported, regardless of the percentage of run or peak height.
Portions of fecal homogenates (about 200‐500 mg) were subjected to combustion analysis prior to LSC. For metabolite profiling, feces samples collected 0‐24, 24‐48, 48‐72, 72‐96, and 96‐120 hours postdose were pooled by individual patient to generate 0‐ to 120‐hour pooled samples including 0.5% of each sample by weight. Feces were pooled per patient (if required) according to the appropriate 24‐hour collection period. The samples were homogenized in deionized water, avoiding excessive dilution (data on file). The radioactivity in each pooled sample was determined by LSC. The total amount of feces collected was factored into the recovery calculation. Approximately 1.6 to 2.7 g of each pooled feces sample was extracted twice with 6 mL of 0.1% formic acid in ACN. […] The combined supernatants were evaporated to dryness under nitrogen and reconstituted in 300 μL of MeOH. […] The reconstituted samples were analyzed by LC‐MS, with eluent fractions collected, and radiochemical profiles were generated based on radioactivity counts. […]

[2] = metabolite profiling in plasma (radioprofiling, LC‐MS); assay type: in vivo, human; conditions: plasma
Description: as §1
For metabolite profiling in plasma, ≈1.9 to 2.8 g of each plasma sample collected 0.5, 1, 2, 6, 12, and 24 hours postdose was extracted twice with 6 mL of 0.1% formic acid in acetonitrile (ACN). Duplicate aliquots were analyzed by LSC to determine extraction recoveries, which ranged from 77.4% to 98.5%. The combined supernatants were evaporated to dryness under nitrogen and reconstituted in 2:1 reverse osmosis water:methanol (MeOH). Duplicate aliquots were analyzed by LSC to determine reconstitution recoveries, which ranged from 89.3% to 115%. The reconstituted samples were analyzed by LC‐MS, with eluent fractions collected at 10‐second intervals into 96‐well plates containing solid scintillant. Radioactivity in each well was determined using TopCount analysis, and radiochemical profiles were generated based on radioactivity counts.
(§2) Metabolic profiling was performed on plasma, urine, and feces samples using LC‐MS. Shimadzu/Nexera LC‐30AD pumps and Shimadzu/Prominence DGU‐20A5R degasser were used with Shimadzu/Prominence controller CBM‐20A. The high‐pressure liquid chromatograph (HPLC) was equipped with an autoinjector (Shimadzu/Nexera SIL‐30ACMP) set at 10°C and a fraction collector (Leap Technologies PAL HTC‐xt) set at 15°C. Thermo Fisher Scientific Q Exactive was the mass spectrometer system.

[3] = tested on: rCYP1A2, rCYP2B6, rCYP2C8, rCYP2C9, rCYP2C19, rCYP2D6, rCYP3A4; test: incubation of pamiparib with recombinant P450 isoform panel; assay type: in vitro ADME; conditions: 1 μM pamiparib, 50 pmol/mL, 90 minutes
Description: (§3) Metabolic stability in human liver microsomes (HLMs) and cytochrome P450 (CYP450) phenotyping assays were conducted in 3D BioOptima (Suzhou, China) using validated methodology, [13] to determine the intrinsic clearance and enzymes responsible for metabolism of pamiparib. HLMs for microsome stability was from BD Biosciences (Woburn, New York). For phenotyping, HLMs and recombinant P450 (rCYP) were from Corning (Woburn, New York). Pamiparib (1 μM) was incubated with pooled HLM (0.5 mg/mL), NADPH (1 mM), and MgCl2 (3 mM) terminated at 0, 5, 15, 30, 60, and 90 minutes. The intrinsic clearance was calculated as 0.693/(t1/2 × HLM concentration), where t1/2 is the half‐life of pamiparib determined in HLMs. For phenotyping in HLMs, pamiparib (1 μM) was incubated in the absence or presence of isoform‐selective inhibitors: 0.2 μM α‐naphthoflavone for CYP1A2, 2 μM clopidogrel for CYP2B6, 16 μM montelukast for CYP2C8, 10 μM sulfaphenazole for CYP2C9, 30 μM nootkatone for CYP2C19, 2 μM quinidine for CYP2D6, and 1 μM ketoconazole for CYP3A. The following isoform‐selective probe substrates served as positive controls: 40 μM phenacetin for CYP1A2, 100 μM bupropion for CYP2B6, 2 μM amodiaquine for CYP2C8, 5 μM diclofenac for CYP2C9, 40 μM S‐mephenytoin for CYP2C19, 5 μM dextromethorphan for CYP2D6, and 2 μM midazolam for CYP3A4. […] Pamiparib, M1, and M2 were analyzed by LC‐MS/MS.

[4] = metabolite profiling in pooled urine (radioprofiling, LC‐MS); assay type: in vivo, human; conditions: pooled urine 0‐96 hours, mean
Description: as §1
Each aliquot of urine (about 1 mL, weighed) was added directly to liquid scintillant prior to LSC. For metabolite profiling, urine samples collected 0‐4, 4‐8, 8‐12, 12‐24, 24‐48, 48‐72, and 72‐96 hours postdose were pooled by individual patient to generate 0‐ to 96‐hour pooled samples including 0.2% of each sample by weight. The radioactivity in each pooled sample was determined by LSC. The total amount of urine collected was factored into the recovery calculation. […] Pooled urine samples were analyzed by LC‐MS, with eluent fractions collected at 10‐second intervals into 96‐well plates containing solid scintillant. Radioactivity in each well was determined using TopCount analysis, and radiochemical profiles were generated based on radioactivity counts.
as §2

[5] = stability of metabolite M2; assay type: physicochemical; conditions: dehydrates in the LC‐MS source or under other conditions
rCYP2D6 = target: T1, rCYP2D6 (Homo sapiens, UniProt P10635); test: incubation of pamiparib with recombinant CYP2D6; assay type: in vitro ADME; conditions: 1 μM pamiparib, 50 pmol/mL, 90 minutes
T1 construct: purchased Corning (Woburn, New York)
T1 sequence (P10635 whole entry): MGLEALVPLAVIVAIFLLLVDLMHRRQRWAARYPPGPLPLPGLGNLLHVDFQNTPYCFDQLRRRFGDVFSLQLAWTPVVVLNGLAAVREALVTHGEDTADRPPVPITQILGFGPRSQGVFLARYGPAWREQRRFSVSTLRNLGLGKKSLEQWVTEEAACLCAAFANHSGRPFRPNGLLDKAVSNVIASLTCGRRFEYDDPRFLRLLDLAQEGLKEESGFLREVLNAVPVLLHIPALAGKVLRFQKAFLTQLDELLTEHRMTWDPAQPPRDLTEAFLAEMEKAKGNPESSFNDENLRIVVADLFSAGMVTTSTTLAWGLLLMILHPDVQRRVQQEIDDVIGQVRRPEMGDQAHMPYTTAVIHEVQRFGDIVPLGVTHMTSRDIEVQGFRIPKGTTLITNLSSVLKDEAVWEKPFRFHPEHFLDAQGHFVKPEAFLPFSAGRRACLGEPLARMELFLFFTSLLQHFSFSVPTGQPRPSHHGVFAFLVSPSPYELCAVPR
Description: as §3

rCYP3A4 = target: T2, rCYP3A4 (Homo sapiens, UniProt P08684); test: incubation of pamiparib with recombinant CYP3A4; assay type: in vitro ADME; conditions: 1 μM pamiparib, 50 pmol/mL, 90 minutes
T2 construct: purchased Corning (Woburn, New York)
T2 sequence (P08684 whole entry): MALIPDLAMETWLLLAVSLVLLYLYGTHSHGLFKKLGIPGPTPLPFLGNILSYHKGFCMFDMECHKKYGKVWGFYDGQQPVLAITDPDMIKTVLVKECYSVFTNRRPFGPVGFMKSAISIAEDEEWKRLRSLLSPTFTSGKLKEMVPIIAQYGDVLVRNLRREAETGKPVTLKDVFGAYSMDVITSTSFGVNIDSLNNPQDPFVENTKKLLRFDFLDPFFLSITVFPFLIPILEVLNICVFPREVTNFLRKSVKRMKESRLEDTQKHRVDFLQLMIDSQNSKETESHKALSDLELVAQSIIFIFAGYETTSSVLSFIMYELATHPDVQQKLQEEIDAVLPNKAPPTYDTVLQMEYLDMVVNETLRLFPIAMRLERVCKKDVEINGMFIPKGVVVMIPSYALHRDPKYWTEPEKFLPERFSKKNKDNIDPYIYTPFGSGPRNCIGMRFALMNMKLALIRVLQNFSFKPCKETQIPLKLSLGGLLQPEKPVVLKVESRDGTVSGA
Description: as §3

rCYP2C8 = target: T3, rCYP2C8 (Homo sapiens, UniProt P10632); test: incubation of pamiparib with recombinant CYP2C8; assay type: in vitro ADME; conditions: 1 μM pamiparib, 50 pmol/mL, 90 minutes
T3 construct: purchased Corning (Woburn, New York)
T3 sequence (P10632 1-490): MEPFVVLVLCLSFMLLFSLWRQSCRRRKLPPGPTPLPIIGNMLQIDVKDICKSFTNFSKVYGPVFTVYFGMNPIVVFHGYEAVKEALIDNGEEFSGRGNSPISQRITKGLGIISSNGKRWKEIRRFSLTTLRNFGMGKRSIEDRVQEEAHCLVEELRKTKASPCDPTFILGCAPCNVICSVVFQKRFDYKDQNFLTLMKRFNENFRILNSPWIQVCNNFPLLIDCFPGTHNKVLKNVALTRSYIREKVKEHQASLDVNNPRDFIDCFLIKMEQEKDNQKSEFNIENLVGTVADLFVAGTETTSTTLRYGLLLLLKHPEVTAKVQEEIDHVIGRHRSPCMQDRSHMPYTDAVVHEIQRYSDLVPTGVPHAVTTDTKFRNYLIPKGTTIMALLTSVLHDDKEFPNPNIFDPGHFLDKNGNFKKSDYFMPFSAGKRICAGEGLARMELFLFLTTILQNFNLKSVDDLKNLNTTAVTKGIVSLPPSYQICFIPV
Description: as §3

Row | % of Radioactive Dose, Feces [1] | Percent of Total Radioactivity Concentration (AUC0‐24h) ([2]; patient S103) [%] | Percent of Total Radioactivity Concentration (AUC0‐24h) ([2]; patient S104) [%] | metabolite detection across rCYP isoforms [3] | % of Radioactive Dose, Urine [4] | stability of the metabolite [5] | metabolite formation after incubation of pamiparib with rCYP2D6 (rCYP2D6) | metabolite formation after incubation of pamiparib with rCYP3A4 (rCYP3A4) | metabolite formation after incubation of pamiparib with rCYP2C8 (rCYP2C8) | Structure (SMILES)
1 | not identified | 2.00 | 4.38 | detected in all isoforms except rCYP2C9 | not identified | not stable | higher levels; also recorded: generated | higher levels | higher levels; also recorded: generated | C[C@]12CCC(O)N1CC1=NNC(=O)c3cc(F)cc4[nH]c2c1c34 (stereo partly drawn) [Metabolite M2]
2 | 1.3% | – | – | – | 8.05% | – | – | – | – | C[C@]1(CCCO)NCC2=NNC(=O)c3cc(F)cc4[nH]c1c2c34 [Metabolite M10, pamiparib hydrate]
3 | – | – | – | not detected with other rCYP isoforms | 0.53% | – | detected; also recorded: generated | detected; also recorded: generated | – | C[C@]12CCC[N+]1([O-])CC1=NNC(=O)c3cc(F)cc4[nH]c2c1c34 (stereo partly drawn) [Metabolite M1]
